ChEMBL document CHEMBL1201862, “PubChem BioAssay data set” (2004)
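Results reflect a 48-hour exposure of cells in 96-well plates to compound at five concentrations. GI50 marks 50% less growth.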 Calls of active or inactive are those of the source. No stated cut-off is given here; in the data, active = GI50 up to about 1.1 µM and inactive = higher.

Assays:
Assay in all cases: DTP human tumour cell line panel, 48 h
T47D = tested on: T47D
MDA-MB-435 = tested on: MDA-MB-435
CCRF-CEM = tested on: CCRF-CEM
SK-MEL-2 = tested on: SK-MEL-2
LOX IMVI = tested on: LOX IMVI
ACHN = tested on: ACHN
HT-29 = tested on: HT-29
Malme-3M = tested on: Malme-3M
NCI-H460 = tested on: NCI-H460
SK-OV-3 = tested on: SK-OV-3
COLO 205 = tested on: COLO 205
SF-295 = tested on: SF-295
U-251 = tested on: U-251
OVCAR-4 = tested on: OVCAR-4
OVCAR-8 = tested on: OVCAR-8
UACC-62 = tested on: UACC-62
NCI-H23 = tested on: NCI-H23
NCI-H226 = tested on: NCI-H226
TK-10 = tested on: TK-10
SK-MEL-5 = tested on: SK-MEL-5
M14 = tested on: M14
HOP-92 = tested on: HOP-92
EKVX = tested on: EKVX
NCI/ADR-RES = tested on: NCI/ADR-RES
MDA-N = tested on: MDA-N
SF-539 = tested on: SF-539
SNB-19 = tested on: SNB-19
K562 = tested on: K562
HL-60 = tested on: HL-60
MOLT-4 = tested on: MOLT-4
SK-MEL-28 = tested on: SK-MEL-28
UACC-257 = tested on: UACC-257
A498 = tested on: A498
SW-620 = tested on: SW-620
DU-145 = tested on: DU-145
HCC 2998 = tested on: HCC 2998
A549 = tested on: A549
HCT-15 = tested on: HCT-15
KM12 = tested on: KM12
IGROV-1 = tested on: IGROV-1
MCF7 = tested on: MCF7
786-0 = tested on: 786-0
SNB-75 = tested on: SNB-75
MDA-MB-231 = tested on: MDA-MB-231
Hs-578T = tested on: Hs-578T
OVCAR-5 = tested on: OVCAR-5
CAKI-1 = tested on: CAKI-1
SF-268 = tested on: SF-268
NCI-H522 = tested on: NCI-H522
UO-31 = tested on: UO-31
HOP-62 = tested on: HOP-62
BT-549 = tested on: BT-549
HCT-116 = tested on: HCT-116
RXF 393 = tested on: RXF 393
SN12C = tested on: SN12C
PC-3 = tested on: PC-3
RPMI-8226 = tested on: RPMI-8226
OVCAR-3 = tested on: OVCAR-3
SR = tested on: SR

FC(F)(F)c1ccc2nc(Sc3ccccn3)cnc2c1
GI50 (T47D): 28 µM (inactive)
GI50 (MDA-MB-435): 58.1 µM (inactive)
GI50 (CCRF-CEM): 2.94 µM (inactive)
GI50 (SK-MEL-2): 15.9 µM (inactive)
GI50 (LOX IMVI): 40.6 µM (inactive)
GI50 (ACHN): 16.7 µM (inactive)
GI50 (HT-29): 51.8 µM (inactive)
GI50 (Malme-3M): > 100 µM (inactive)
GI50 (NCI-H460): 48.4 µM (inactive)
GI50 (SK-OV-3): 33.8 µM (inactive)
GI50 (COLO 205): 53.2 µM (inactive)
GI50 (SF-295): 60.1 µM (inactive)
GI50 (U-251): 18.8 µM (inactive)
GI50 (OVCAR-4): 79.8 µM (inactive)
GI50 (OVCAR-8): 38.8 µM (inactive)
GI50 (UACC-62): 29.2 µM (inactive)
GI50 (NCI-H23): 28.4 µM (inactive)
GI50 (NCI-H226): 26.2 µM (inactive)
GI50 (TK-10): 31 µM (inactive)
GI50 (SK-MEL-5): 20.7 µM (inactive)
GI50 (M14): 48 µM (inactive)
GI50 (HOP-92): 89.1 µM (inactive)
GI50 (EKVX): 49.2 µM (inactive)
GI50 (NCI/ADR-RES): 37.4 µM (inactive)
GI50 (MDA-N): 69.2 µM (inactive)
GI50 (SF-539): 16.7 µM (inactive)
GI50 (SNB-19): 24.2 µM (inactive)
GI50 (K562): 51.4 µM (inactive)
GI50 (HL-60): 4.14 µM (inactive)
GI50 (MOLT-4): 36.8 µM (inactive)
GI50 (SK-MEL-28): > 100 µM (inactive)
GI50 (UACC-257): 79.3 µM (inactive)
GI50 (A498): 19.7 µM (inactive)
GI50 (SW-620): 34.4 µM (inactive)
GI50 (DU-145): 46.6 µM (inactive)
GI50 (HCC 2998): 17.1 µM (inactive)
GI50 (A549): 38.8 µM (inactive)
GI50 (HCT-15): 50.5 µM
GI50 (KM12): 88.7 µM (inactive)
GI50 (IGROV-1): 75.5 µM (inactive)
GI50 (MCF7): 74.8 µM (inactive)
GI50 (786-0): 23.5 µM (inactive)
GI50 (SNB-75): 29.5 µM (inactive)
GI50 (MDA-MB-231): 38.4 µM (inactive)
GI50 (Hs-578T): 54.7 µM (inactive)
GI50 (OVCAR-5): > 100 µM (inactive)
GI50 (CAKI-1): 62.4 µM (inactive)
GI50 (SF-268): 49.2 µM (inactive)
GI50 (NCI-H522): 21.7 µM (inactive)
GI50 (UO-31): 22.7 µM (inactive)
GI50 (HOP-62): 35.3 µM (inactive)
GI50 (BT-549): 29.6 µM (inactive)
GI50 (HCT-116): 44.3 µM (inactive)
GI50 (RXF 393): 19.1 µM (inactive)
GI50 (SN12C): 35.5 µM (inactive)

COc1c(OC(C)C)cc2cc(O)c(C(=O)NC3Cc4ccc(c(Cl)n4)O[C@@H]4C=C5C#C/C(=C\C#CC6OC56C4OC4CC(C)(O)C(O)C(C)O4)C(OC4CC(O)C(N(C)C)C(C)O4)COC3=O)cc2c1OC (stereo partly specified)
GI50 (T47D): > 36.3 µM (inactive)
GI50 (MDA-MB-435): > 36.3 µM (inactive)
GI50 (SK-MEL-2): > 36.3 µM (inactive)
GI50 (Malme-3M): > 36.3 µM (inactive)
GI50 (PC-3): 35.8 µM (inactive)
GI50 (NCI-H226): > 36.3 µM (inactive)
GI50 (HOP-92): > 36.3 µM (inactive)
GI50 (NCI/ADR-RES): > 36.3 µM (inactive)
GI50 (MDA-N): > 36.3 µM (inactive)
GI50 (SK-MEL-28): > 36.3 µM (inactive)
GI50 (A498): > 36.3 µM (inactive)
GI50 (DU-145): 11.5 µM (inactive)
GI50 (HCC 2998): > 36.3 µM (inactive)
GI50 (MCF7): 2.64 µM (inactive)
GI50 (SNB-75): > 36.3 µM (inactive)
GI50 (Hs-578T): > 36.3 µM (inactive)
GI50 (CAKI-1): 10.9 µM (inactive)
GI50 (BT-549): > 36.3 µM (inactive)
GI50 (RXF 393): > 36.3 µM (inactive)

COc1ccc(-c2cc(=O)c3c(OC)c(OC)c(OC)c(OC)c3o2)cc1OC [NOBILETIN]
GI50 (T47D): 19.5 µM (inactive)
GI50 (MDA-MB-435): 45.1 µM (inactive)
GI50 (CCRF-CEM): 65.6 µM (inactive)
GI50 (SK-MEL-2): 49.4 µM (inactive)
GI50 (LOX IMVI): 30.1 µM (inactive)
GI50 (ACHN): 37.3 µM (inactive)
GI50 (HT-29): 32.1 µM (inactive)
GI50 (Malme-3M): > 100 µM (inactive)
GI50 (NCI-H460): 52.8 µM (inactive)
GI50 (SK-OV-3): 61.7 µM (inactive)
GI50 (COLO 205): 35 µM (inactive)
GI50 (SF-295): 32.5 µM (inactive)
GI50 (U-251): 71 µM (inactive)
GI50 (OVCAR-4): 28 µM (inactive)
GI50 (OVCAR-8): 29.6 µM (inactive)
GI50 (UACC-62): 25.6 µM (inactive)
GI50 (RPMI-8226): 39.8 µM (inactive)
GI50 (OVCAR-3): 24.7 µM (inactive)
GI50 (SR): 59.7 µM (inactive)
GI50 (NCI-H23): 47.1 µM (inactive)
GI50 (NCI-H226): 91.6 µM (inactive)
GI50 (TK-10): 50.1 µM (inactive)
GI50 (SK-MEL-5): 18.6 µM (inactive)
GI50 (M14): 55.8 µM (inactive)
GI50 (HOP-92): 18.3 µM (inactive)
GI50 (EKVX): 56.2 µM (inactive)
GI50 (NCI/ADR-RES): 20.3 µM (inactive)
GI50 (MDA-N): 49.9 µM (inactive)
GI50 (SF-539): > 100 µM (inactive)
GI50 (SNB-19): > 100 µM (inactive)
GI50 (K562): 36.3 µM (inactive)
GI50 (HL-60): 17.3 µM (inactive)
GI50 (MOLT-4): 25.2 µM (inactive)
GI50 (SK-MEL-28): > 100 µM (inactive)
GI50 (UACC-257): 33.5 µM (inactive)
GI50 (A498): 25.2 µM (inactive)
GI50 (SW-620): 47.5 µM (inactive)
GI50 (DU-145): 61.1 µM (inactive)
GI50 (HCC 2998): 32.7 µM (inactive)
GI50 (A549): 42.8 µM (inactive)
GI50 (HCT-15): 26.5 µM
GI50 (IGROV-1): 49.2 µM (inactive)
GI50 (MCF7): 4.86 µM (inactive)
GI50 (786-0): 49.9 µM (inactive)
GI50 (SNB-75): 30.5 µM (inactive)
GI50 (MDA-MB-231): 34.5 µM (inactive)
GI50 (Hs-578T): 21.1 µM (inactive)
GI50 (OVCAR-5): > 100 µM (inactive)
GI50 (CAKI-1): 29.4 µM (inactive)
GI50 (SF-268): 66.8 µM (inactive)
GI50 (NCI-H522): 28.6 µM (inactive)
GI50 (UO-31): 24.7 µM (inactive)
GI50 (HOP-62): 44.7 µM (inactive)
GI50 (BT-549): 62.7 µM (inactive)
GI50 (HCT-116): 72.4 µM (inactive)
GI50 (RXF 393): 61.5 µM (inactive)
GI50 (SN12C): 41.5 µM (inactive)
